{"source": "patent US6287787A", "about": "“Dimeric oligopeptide mixture sets” (Torrey Pines Institute for Molecular Studies, priority 1993, dated 2001)", "target": "T1, trypsin (bovine pancreas trypsin, Type I) (Bos taurus, UniProt P00760)", "T1 construct": "purchased Sigma Chemicals T 8003; host or cells: bovine pancreas", "T1 sequence (P00760 24-246)": "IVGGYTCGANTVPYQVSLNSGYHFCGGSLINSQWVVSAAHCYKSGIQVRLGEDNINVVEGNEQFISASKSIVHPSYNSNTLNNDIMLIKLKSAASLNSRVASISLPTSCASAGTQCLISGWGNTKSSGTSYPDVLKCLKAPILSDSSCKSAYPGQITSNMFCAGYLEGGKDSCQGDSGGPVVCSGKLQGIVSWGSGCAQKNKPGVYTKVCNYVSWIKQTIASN", "experiment": "Competitive inhibition of tryptic hydrolysis of Nα-benzoyl-D,L-arginine-p-nitroanilide", "assay_type": "biochemical", "description": "The inhibition observed was 55 percent at 5 mg/ml.\nFor these assays, 50 μl of dimeric oligopeptide mixture set solutions in water (0.5-5 mM) were added to 0.1 M Tris-HCl containing 0.025 M CaCl2, pH 7.8 (100 μl), to which were added 15 μl of trypsin (bovine pancreas trypsin, Type I; Sigma Chemicals T 8003; 0.05 mg/ml in 0.02 N HCl ). The solution was maintained for 30 minutes, and the above substrate (N^α -benzoyl-D,L-arginine-p-nitroanitide) was added (100 μl, 1 mg/ml in water). Absorbances at 405 nm were read using a Titertek multichannel photometer after another 30 minutes had elapsed and were expressed as a percentage of the control (absorbance of a solution without peptide).", "note": "Where a SMILES comes first, the peptide text is derived from it. Bridges are numbered along the chain shown (N, C = ends). Roman numbers before positions name the chains, in order. [ ]: non-standard residue; d: D form. Met(O) = CS(=O)CC[C@H](N)C(=O)O", "data": [{"smiles": "CC(=O)N[C@@H](CC[S+](C)[O-])C(=O)N[C@@H](CSSC[C@H](NC(=O)[C@H](CC[S+](C)[O-])NC(C)=O)C(=O)N[C@@H](Cc1c[nH]c2ccccc12)C(=O)N[C@@H](CCCNC(=N)N)C(N)=O)C(=O)N[C@@H](Cc1c[nH]c2ccccc12)C(=O)N[C@@H](CCCNC(=N)N)C(N)=O", "note": "(stereo partly shown) [SEQ ID NO:4] (I: Ac-[Met(O)]CWR-NH2 / II: Ac-[Met(O)]CWR-NH2; disulfide I:2-II:2)", "values": [{"measurement": "IC50", "value": 53, "unit": "µM"}]}]}
